Legend:
[1] = cited from earlier work
[2] = test system: tocopherol (TC) biosynthesis
Procedure: (§1) A flask was kept untreated and is considered the positive control. After 36 h, the culture was labeled with [1-(n)-^3H]GGPP (3.125 µCi/ml) in normal RPMI 1640 medium [32] during the last 16 h. The schizonts were purified by magnetic column (MACS Separation Columns “CS”, Miltenyi Biotec) [33]. The parasitaemia was estimated by microscopic examination of Giemsa-stained smears and the volume was adjusted of purified culture, according to the control, so that equal numbers of treated and untreated parasites were applied. After metabolic labelling and purification, lyophilized schizonts were used for extraction of MQ and TC. The final extract was injected into the HPLC-RT [34].
(§2) The molecules of MQ and TC were purified by an isocratic system with mobile phase methanol: ethanol (50:50 v/v), flow 0.5 ml/min and detection performed by UV absorption spectrum at a wavelength equal to 270 nm. The mobile phase was filtered on a PTFE (solvent A) and NYLON (solvent B) membrane of 0.20 µM. Radioactive fractions were dried by evaporation at 24 °C and resuspended in scintillation fluid. Quantification of the radioactivity (c.p.m.) was performed on the device Beckman 5000 β-radiation scintillation counter (Beckman, CA, USA) [34].
(§3) The IC50 was estimated by linear interpolation as compared to the drug-free controls, using the software GraphPad PRISM software. […]

[3] = test system: menaquinone (MQ) biosynthesis
Procedure: as §1, §2, §3

[4] = test system: Plasmodium berghei; design: method as in PMID 23850202; conditions: murine Plasmodium berghei model; cited from earlier work
[5] = solution with a maximum of 1% DMSO

O=C1C(O)=C([C@H]2CC[C@H](c3ccc(Cl)cc3)CC2)C(=O)c2ccccc21 [atovaquone]
Binding to plasma proteins [1]: high binding to plasma proteins | Bioavailability [1]: low bioavailability | Biopharmaceutics Classification (BCS) class [1]: class II

COc1ccc(NC2=C(O)C(=O)c3ccccc3C2=O)cc1 [4c]
inhibition [2]: 49.6% | inhibition [3]: 58.1% | Antiplasmodial activity in vivo [4]: interesting antiplasmodial activity | Solubility [5]: soluble

O=C1C(O)=C(Nc2ccccc2)C(=O)c2ccccc21 [4a]
Antiplasmodial activity in vivo [4]: interesting antiplasmodial activity | Solubility [5]: soluble
